Laboratory results published in the supplement of paper PMC13380429.
Counter-ions that a name gives are not always drawn.

Legend:
[1] = test system: A549-ACE2 infected with SARS-CoV-2; experiment: cell count relative to DMSO; higher = less toxic; details: 24 h
A549-ACE2 [2] = experiment: drug-induced phospholipidosis relative to tamoxifen; higher = more phospholipidosis
A549-ACE2 [3] = experiment: phospholipidosis EC50; higher = less potent phospholipidosis inducer
Vero E6 [4] = experiment: drug sensitivity score (DSS) for viability; higher = more toxic; extreme values may be limits of the assay; details: 72 h
HepG2 [5] = experiment: as above; details: 72 h
Calu-3 [6] = experiment: as above; details: 72 h
Caco-2 [7] = experiment: as above; details: 72 h
U2OS [8] = experiment: as above; details: 72 h
Vero E6 [9] = experiment: cell viability relative to DMSO; higher = less toxic; details: 72 h
HepG2 [10] = experiment: as above; details: 72 h
Calu-3 [11] = experiment: as above; details: 72 h
Caco-2 [12] = experiment: as above; details: 72 h
U2OS [13] = experiment: as above; details: 72 h
[14] = test system: A549-ACE2 infected with SARS-CoV-2; experiment: morphology score (similarity to uninfected cells); higher = more like uninfected cells; details: 24 h
Vero E6 [15] = experiment: relative viability EC50 (midpoint between 100% and the lowest measured viability); higher = less toxic; details: 72 h
HepG2 [16] = experiment: as above; details: 72 h
Calu-3 [17] = experiment: as above; details: 72 h
[18] = test system: A549-ACE2 infected with SARS-CoV-2; experiment: SARS-CoV-2 infection rate relative to DMSO; higher = more infection; details: 24 h
Caco-2 [19] = experiment: relative viability EC50 (midpoint between 100% and the lowest measured viability); higher = less toxic; details: 72 h
U2OS [20] = experiment: as above; details: 72 h

O=C(Nc1ncc(SCCN2CCCC2)s1)[C@]1(c2ccc(S(=O)(=O)C3CC3)cc2)C[C@H]1C1CCCCC1
Details	SARS-CoV-2 infection rate [%]	cell count [%]	cell viability [%]	morphology score	phospholipidosis EC50 [nM]
A549-ACE2 [3], 24 h	–	–	–	–	6500
A549-ACE2 [3], 48 h	–	–	–	–	5120
A549-ACE2 [3], 72 h	–	–	–	–	5400
Caco-2 [12], 1 nM	–	–	101	–	–
Caco-2 [12], 10 nM	–	–	98.9	–	–
Caco-2 [12], 100 nM	–	–	98	–	–
Caco-2 [12], 1000 nM	–	–	102	–	–
Caco-2 [12], 10000 nM	–	–	69	–	–
Calu-3 [11], 1 nM	–	–	110	–	–
Calu-3 [11], 10 nM	–	–	93.8	–	–
Calu-3 [11], 100 nM	–	–	96.4	–	–
Calu-3 [11], 1000 nM	–	–	103	–	–
Calu-3 [11], 10000 nM	–	–	14	–	–
HepG2 [10], 1 nM	–	–	104	–	–
HepG2 [10], 10 nM	–	–	99.2	–	–
HepG2 [10], 100 nM	–	–	98.6	–	–
HepG2 [10], 1000 nM	–	–	90.2	–	–
HepG2 [10], 10000 nM	–	–	44.8	–	–
U2OS [13], 1 nM	–	–	99.4	–	–
U2OS [13], 10 nM	–	–	105	–	–
U2OS [13], 100 nM	–	–	104	–	–
U2OS [13], 1000 nM	–	–	102	–	–
U2OS [13], 10000 nM	–	–	74.9	–	–
Vero E6 [9], 1 nM	–	–	96.3	–	–
Vero E6 [9], 10 nM	–	–	94.6	–	–
Vero E6 [9], 100 nM	–	–	97.2	–	–
Vero E6 [9], 1000 nM	–	–	90.5	–	–
Vero E6 [9], 10000 nM	–	–	95.4	–	–
[1], 0.3 µM	–	101	–	–	–
[1], 3 µM	–	115	–	–	–
[1], 10 µM	–	118	–	–	–
[1], 30 µM	–	56	–	–	–
[14], 0.3 µM	–	–	–	0.2	–
[14], 3 µM	–	–	–	0.84	–
[14], 10 µM	–	–	–	0.6	–
[14], 30 µM	–	–	–	-0.07	–
[18], 0.3 µM	94	–	–	–	–
[18], 3 µM	27	–	–	–	–
[18], 10 µM	8	–	–	–	–
[18], 30 µM	44	–	–	–	–

drug-induced phospholipidosis [%], A549-ACE2 [2]
Details	0.3 µM	0.833333 µM	3.33333 µM	6.66667 µM	10 µM	30 µM
24 h	14.6	32.7	73.1	104	117	197
48 h	10.1	21.2	80.9	105	132	–
72 h	11.7	19.3	75.5	114	138	–

Details	drug sensitivity score	relative viability EC50 [nM]
Caco-2 [7]	1.3	–
Calu-3 [6]	4.6	–
Calu-3 [17]	–	3340
HepG2 [5]	4.6	–
HepG2 [16]	–	1840
U2OS [8]	0.8	–
Vero E6 [4]	0	–
Vero E6 [15]	–	> 10000

Cc1ccc(S(=O)(=O)/C=C/C#N)cc1 [BAY-11-7082]
Details	SARS-CoV-2 infection rate, [18] [%]	cell count, [1] [%]	cell viability, Caco-2 [12] [%]	cell viability, Calu-3 [11] [%]	cell viability, HepG2 [10] [%]	cell viability, U2OS [13] [%]	cell viability, Vero E6 [9] [%]	morphology score, [14]
1 nM	–	–	92.8	104	94.2	97.2	95.5	–
10 nM	–	–	90.5	101	96.9	98.7	94.4	–
0.1 µM	106	101	–	–	–	–	–	0
100 nM	–	–	95.4	110	101	98.5	99.7	–
0.3 µM	99	98	–	–	–	–	–	-0.16
1 µM	108	95	–	–	–	–	–	-0.29
1000 nM	–	–	97.7	107	89.7	97.2	92.6	–
3 µM	107	84	–	–	–	–	–	-0.27
10000 nM	–	–	27	52.2	0	0.1	12.9	–

drug-induced phospholipidosis [%], A549-ACE2 [2]
Details	0.3 µM	0.833333 µM	3.33333 µM	6.66667 µM	10 µM
24 h	1.81	0.62	1.15	1.47	1.45
48 h	2.31	0.11	-1.24	0.67	2.43
72 h	3.69	-0.813	-2.01	-1.91	-1.18

Details	drug sensitivity score	relative viability EC50 [nM]
Caco-2 [7]	4.3	–
Caco-2 [19]	–	2940
Calu-3 [6]	2	–
HepG2 [5]	7.2	–
HepG2 [16]	–	2310
U2OS [8]	5.9	–
U2OS [20]	–	2960
Vero E6 [4]	6	–
Vero E6 [15]	–	2470

CC/C(=C(\c1ccc(O)cc1)c1ccc(OCCNC)cc1)c1ccccc1 [Endoxifen HCl]
Details	SARS-CoV-2 infection rate [%]	cell count [%]	cell viability [%]	morphology score	phospholipidosis EC50 [nM]
A549-ACE2 [3], 24 h	–	–	–	–	1900
A549-ACE2 [3], 48 h	–	–	–	–	3000
A549-ACE2 [3], 72 h	–	–	–	–	3100
Caco-2 [12], 1 nM	–	–	104	–	–
Caco-2 [12], 10 nM	–	–	115	–	–
Caco-2 [12], 100 nM	–	–	106	–	–
Caco-2 [12], 1000 nM	–	–	105	–	–
Caco-2 [12], 10000 nM	–	–	53.6	–	–
Calu-3 [11], 1 nM	–	–	102	–	–
Calu-3 [11], 10 nM	–	–	94	–	–
Calu-3 [11], 100 nM	–	–	96.6	–	–
Calu-3 [11], 1000 nM	–	–	100	–	–
Calu-3 [11], 10000 nM	–	–	5.1	–	–
HepG2 [10], 1 nM	–	–	110	–	–
HepG2 [10], 10 nM	–	–	95.4	–	–
HepG2 [10], 100 nM	–	–	103	–	–
HepG2 [10], 1000 nM	–	–	105	–	–
HepG2 [10], 10000 nM	–	–	36.5	–	–
Vero E6 [9], 1 nM	–	–	103	–	–
Vero E6 [9], 10 nM	–	–	105	–	–
Vero E6 [9], 100 nM	–	–	103	–	–
Vero E6 [9], 1000 nM	–	–	99.9	–	–
Vero E6 [9], 10000 nM	–	–	91.1	–	–
[1], 0.3 µM	–	98	–	–	–
[1], 3 µM	–	123	–	–	–
[1], 10 µM	–	118	–	–	–
[1], 30 µM	–	25	–	–	–
[14], 0.3 µM	–	–	–	0.02	–
[14], 3 µM	–	–	–	0.87	–
[14], 10 µM	–	–	–	0.84	–
[14], 30 µM	–	–	–	-0.2	–
[18], 0.3 µM	100	–	–	–	–
[18], 3 µM	30	–	–	–	–
[18], 10 µM	8	–	–	–	–
[18], 30 µM	86	–	–	–	–

drug-induced phospholipidosis [%], A549-ACE2 [2]
Details	0.3 µM	0.833333 µM	3.33333 µM	6.66667 µM	10 µM
24 h	5.89	13.1	65.7	78.7	78.6
48 h	5.61	7.92	62.4	83.1	77.4
72 h	8.35	4.33	55.2	86.8	88.4

Details	drug sensitivity score	relative viability EC50 [nM]
Caco-2 [7]	2.1	–
Calu-3 [6]	5.3	–
Calu-3 [17]	–	3190
HepG2 [5]	3.1	–
HepG2 [16]	–	3530
Vero E6 [4]	0	–
Vero E6 [15]	–	> 10000

CC(C)C[C@@H](C=O)NC(=O)[C@H](CC(C)C)NC(=O)[C@H](CC(C)C)NC(=O)OCc1ccccc1 [MG-132]
Details	SARS-CoV-2 infection rate, [18] [%]	cell count, [1] [%]	cell viability, Caco-2 [12] [%]	cell viability, Calu-3 [11] [%]	cell viability, HepG2 [10] [%]	cell viability, U2OS [13] [%]	cell viability, Vero E6 [9] [%]	morphology score, [14]
1 nM	–	–	99.9	96.6	102	99.8	93.1	–
10 nM	–	–	103	113	97	99.7	100	–
100 nM	–	–	94.5	102	107	95.7	104	–
0.3 µM	38	109	–	–	–	–	–	0.7
1000 nM	–	–	17.4	23	22.1	9.3	48.5	–
3 µM	9	37	–	–	–	–	–	0.33
10 µM	20	22	–	–	–	–	–	0.22
10000 nM	–	–	5.2	3.7	-0.1	-0.1	4.4	–
30 µM	30	14	–	–	–	–	–	0.18

A549-ACE2 [2], 24 h
Details	drug-induced phospholipidosis [%]
0.3 µM	21.5
0.833333 µM	10.6

Details	drug sensitivity score	relative viability EC50 [nM]
Caco-2 [7]	15.8	–
Caco-2 [19]	–	391
Calu-3 [6]	14.2	–
Calu-3 [17]	–	578
HepG2 [5]	14.4	–
HepG2 [16]	–	611
U2OS [8]	17	–
U2OS [20]	–	377
Vero E6 [4]	11.6	–
Vero E6 [15]	–	940
